Results as given in publication PMC7232165 (Viruses, 2020).
Where two headings read alike, the source gives them in different places.

What was measured:
[1] = system: HIV-1NL4-3; experiment: Anti-HIV-1 assay in TZM-GFP cells (LTR-activated GFP expression); conditions: for EC50: read-out: EC50 (concentration of compound inhibiting HIV-1 replication by 50%); for antiviral activity against HIV-1 (in words): screened at 20 μM
[2] = HLMs; cited from earlier work
[3] = in vitro; format: cell-based; conditions: human, TZM-GFP cells, 72 h, XTT; mean ± standard deviation; read-out: CC50 (concentration of compound causing 50% cell death)
[4] = system: TZM-GFP cells; experiment: in vitro; format: cell-based; conditions: for CC50: TZM-GFP cells, 72 h, XTT, mean ± standard deviation, read-out: CC50 (concentration of compound causing 50% cell death)
[5] = target: covalently-crosslinked hexameric CA A14C/E45C/W184A/M185A (CA121) (Human immunodeficiency virus type 1 group M subtype B, UniProt P12493, A146C/E177C/M317A/W316A); experiment: Thermal shift assay (TSA) for effect on HIV-1 CA hexamer stability; format: binding; conditions: compound 20 µM
[6] = Microsomal stability assay, mouse liver microsomes; format: in vitro ADME
[7] = Microsomal stability assay, human liver microsomes; format: in vitro ADME; conditions: for half-life at 1 µM: human liver microsomes
[8] = Human immunodeficiency virus 1, 48 h

Row | Compound | EC50 [1, 8] [µM] | CC50 at 72 h [3] [µM] | also measured
1 | Cc1[nH]c2ccccc2c1CC(=O)N[C@@H](Cc1ccccc1)C(=O)N(C)c1ccccc1 [Compound 1, PF74, reference compound] | 0.61 ± 0.2 |  | half-life (t1/2) in human liver microsomes [2]: less than 1 min
2 | COC(=O)C1CCCN1C(=O)C(NC(=O)Cn1c(=O)[nH]c2ccccc2c1=O)C(C)C (stereo not shown) [Compound 2] | > 20 | > 100 | antiviral activity against HIV-1 (in words) [1]: no significant antiviral activity; cytotoxicity (in words) ([4]; screened at 100 μM): no cytotoxicity
3 | COC(=O)[C@@H]1CCCN1C(=O)CNC(=O)Cn1c(=O)[nH]c2ccccc2c1=O [Compound 3] | > 20 | > 100 | effect on CA hexamer stability (in words) [5]: complete loss of the CA hexamer stabilizing effect
4 | COC(=O)[C@@H]1CCCN1C(=O)[C@H](Cc1cccc2cc[nH]c12)NC(=O)Cn1c(=O)[nH]c2ccccc2c1=O [Compound 4] | > 20 | < 100 | 
5 | COC(=O)[C@@H]1CCCN1C(=O)[C@H](Cc1cccc2cc[nH]c12)NC(=O)Cn1c(=O)[nH]c2ccccc2c1=O [Compound 5] |  |  | EC50 ([1]; TZM-GFP cells, MOI = 1, 48 h, mean ± standard deviation, at least two independent experiments): > 20 µM; CC50 [4]: > 100 µM
6 | COC(=O)[C@@H]1CCCN1C(=O)[C@H](CSCc1ccccc1)NC(=O)Cn1c(=O)[nH]c2ccccc2c1=O [Compound 6] | > 20 | > 100 | effect on CA hexamer stability (in words) [5]: no such effect was observed
7 | CCC(C)[C@H](NC(=O)Cn1c(=O)[nH]c2ccccc2c1=O)C(=O)N1CCC[C@H]1C(=O)OC (stereo partly shown) [Compound 7] | > 20 | > 100 | effect on CA hexamer stability (in words) [5]: no such effect was observed
8 | O=C(Cn1c(=O)[nH]c2ccccc2c1=O)N[C@@H](CSCc1ccccc1)C(=O)N1CCC[C@H]1C(=O)Nc1ccccc1 [Compound 8] | > 20 | 44 ± 5 | 
9 | O=C(Cn1c(=O)[nH]c2ccccc2c1=O)N[C@@H](Cc1cccc2cc[nH]c12)C(=O)N1CCC[C@H]1C(=O)Nc1ccccc1 [Compound 9] | > 20 | > 100 | 
10 | O=C(Cn1c(=O)[nH]c2ccccc2c1=O)N[C@@H](Cc1ccccc1)C(=O)N1CCC[C@H]1C(=O)Nc1ccccc1 [Compound 10] | 1.6 ± 0.1 | > 100 | half-life at 1 µM ([6]; pH 7.4, mouse liver microsomes, 1 µM compound, NADPH, read-out: Phase I metabolic stability t1/2, MLM): 2.9 min; half-life at 1 µM ([6]; pH 7.4, with Cobicistat 0.5 µM (CYP3A inhibitor), mouse liver microsomes, in the presence of CYP3A inhibitor Cobicistat 0.5 µM, read-out: Phase I metabolic stability t1/2, MLM (+Cobi)): 85 min; effect on CA hexamer stability (in words) [5]: moderate CA hexamer stabilizing effects; antiviral potency (EC50), fold less than PF74 ([1]; relative to PF74 EC50 = 0.61 μM): 2.5 fold; antiviral activity against HIV-1 (in words) [1]: significant anti-HIV-1 activities; half-life (t1/2) in HLMs, fold longer than PF74 ([7]; HLMs, relative to PF74): 44 fold; half-life at 1 µM ([7]; pH 7.4, with Cobicistat 0.5 µM (CYP3A inhibitor), in the presence of CYP3A inhibitor Cobicistat 0.5 µM, read-out: Phase I metabolic stability t1/2, HLM (+Cobi)): > 120 min; half-life at 1 µM ([7]; pH 7.4, 1 µM compound, NADPH, read-out: Phase I metabolic stability t1/2, HLM): 31 min
11 | CN(C(=O)[C@H](Cc1ccccc1)NC(=O)Cn1c(=O)[nH]c2ccccc2c1=O)c1ccccc1 [Compound 11] | 6.9 ± 0.8 | > 100 | effect on CA hexamer stability (in words) [5]: moderate CA hexamer stabilizing effects; antiviral activity against HIV-1 (in words) [1]: significant anti-HIV-1 activities
12 | O=C(Cn1c(=O)[nH]c2ccccc2c1=O)N[C@@H](Cc1ccccc1)C(=O)Nc1ccccc1 [Compound 12] |  |  | effect on CA hexamer stability (in words) [5]: did not show activity in either assay; EC50 [1]: > 20 µM; antiviral activity against HIV-1 (in words) [1]: did not show activity in either assay; CC50 [4]: < 100 µM
13 | CN(C(=O)[C@H](Cc1ccccc1)NC(=O)Cn1c(=O)[nH]c2ccccc2c1=O)c1ccc(F)cc1 [Compound 13] |  |  | effect on CA hexamer stability (in words) [5]: moderate CA hexamer stabilizing effects; EC50 [1]: 8 ± 1.3 µM; antiviral activity against HIV-1 (in words) [1]: significant anti-HIV-1 activities; CC50 [4]: > 100 µM
14 | CC(C)C[C@H](NC(=O)Cn1c(=O)[nH]c2ccccc2c1=O)C(=O)N(C)c1ccccc1 [Compound 14] |  |  | EC50 [1]: > 20 µM; CC50 [4]: > 100 µM
15 | CC(C)C[C@H](NC(=O)Cn1c(=O)[nH]c2ccccc2c1=O)C(=O)Nc1ccccc1 [Compound 15] |  |  | EC50 [1]: > 20 µM; CC50 [4]: > 100 µM
16 | Cc1ccc(N(C)C(=O)[C@@H](NC(=O)Cn2c(=O)[nH]c3ccccc3c2=O)C(C)(C)C)cc1 [Compound 16] |  |  | EC50 [1]: > 20 µM; CC50 [4]: > 100 µM
17 | CC(C)(C)[C@H](NC(=O)Cn1c(=O)[nH]c2ccccc2c1=O)C(=O)Nc1ccccc1 [Compound 17] |  |  | EC50 [1]: > 20 µM; CC50 [4]: > 100 µM
18 | CCC(C)[C@H](NC(=O)Cn1c(=O)[nH]c2ccccc2c1=O)C(=O)N(C)c1ccccc1 (stereo partly shown) [Compound 18] |  |  | EC50 [1]: > 20 µM; CC50 [4]: > 100 µM
19 | CCC(C)[C@H](NC(=O)Cn1c(=O)[nH]c2ccccc2c1=O)C(=O)Nc1ccccc1 (stereo partly shown) [Compound 19] |  |  | EC50 [1]: > 20 µM; CC50 [4]: > 100 µM
20 | CCC(C)[C@H](NC(=O)Cn1c(=O)[nH]c2ccccc2c1=O)C(=O)N(C)c1ccc(Cl)cc1 (stereo partly shown) [Compound 20] |  |  | EC50 [1]: > 20 µM; CC50 [4]: > 100 µM

Row | Compound | EC50 [1, 8] [µM] | CC50 at 72 h [3] [µM] | also measured
21 | CCC(C)[C@H](NC(=O)Cn1c(=O)[nH]c2ccccc2c1=O)C(=O)Nc1ccc(-c2nnn[nH]2)cc1 (stereo partly shown) [Compound 21] |  |  | EC50 [1]: > 20 µM; CC50 [4]: > 100 µM
22 | O=C(Cn1c(S)nnc1-c1ccccc1)NNc1ccccn1 [Compound 22] | > 20 | > 100 | 
23 | O=C(Cn1c(S)nnc1-c1ccccc1)NNc1ccccc1 [Compound 23] | > 20 | > 100 | 
24 | O=C(Cn1c(S)nnc1-c1ccccc1)NNc1ccc(F)cc1 [Compound 24] | > 20 | > 100 | 
25 | N#Cc1ccc(NNC(=O)Cn2c(S)nnc2-c2ccccc2)cc1 [Compound 25] | > 20 | > 100 | 
26 | N#Cc1cccc(NNC(=O)Cn2c(S)nnc2-c2ccccc2)c1 [Compound 26] | > 20 | > 100 | 
27 | Cc1ccc(-c2nnc(S)n2CC(=O)NNc2ccccc2)cc1 [Compound 27] | > 20 | ~100 | 
28 | Cc1ccc(-c2nnc(S)n2CC(=O)NNc2ccc(F)cc2)cc1 [Compound 28] | > 20 | > 100 | 
29 | Cc1ccc(-c2nnc(S)n2CC(=O)NNc2ccc(C#N)cc2)cc1 [Compound 29] | > 20 | > 100 | 
30 | Cc1ccc(-c2nnc(S)n2CC(=O)NNc2ccc(-c3ccccc3)cc2)cc1 [Compound 30] | > 20 | > 100 | 
31 | Cc1ccc(-c2nnc(S)n2CC(=O)NNc2ccccn2)cc1 [Compound 31] | > 20 | > 100 | 
32 | Cc1ccccc1-c1nnc(S)n1CC(=O)NNc1ccccc1 [Compound 32] | > 20 | > 100 | 
33 | Cc1ccc(NNC(=O)Cn2c(S)nnc2-c2ccccc2C)cc1 [Compound 33] | > 20 | > 100 | 
34 | Cc1ccccc1-c1nnc(S)n1CC(=O)NNc1ccc(C#N)cc1 [Compound 34] | > 20 | > 100 | 
35 | O=C(Cn1c(S)nnc1-c1cccc2ccccc12)NNc1ccccc1 [Compound 35] | > 20 | > 100 | 
36 | O=C(Cn1c(S)nnc1-c1ccccc1)NNc1ccc(-c2ccccc2)cc1 [Compound 36] | > 20 | > 100 | 
37 | Cc1ccc(NNC(=O)Cn2c(S)nnc2-c2cccc3ccccc23)cc1 [Compound 37] | > 20 | > 100 | 
38 | N#Cc1ccc(NNC(=O)Cn2c(S)nnc2-c2cccc3ccccc23)cc1 [Compound 38] | > 20 | > 100 | 
39 | CN(NC(=O)Cn1c(S)nnc1-c1ccccc1)c1ccccc1 [Compound 39] | > 20 | > 50 | 
